Measurements published in ChEMBL document CHEMBL4393720, “Design, synthesis and biological evaluation of bromophenol-thiazolylhydrazone hybrids inhibiting the interaction of translation initiation factors eIF4E/eIF4G as multifunctional agents for cancer treatment” (Eur J Med Chem, 2019).
The source made the active and inactive calls. The calls are words filed in the database; no cut-off is given here.

Experiments:
[1] = Acute toxicity in SPF Kunming mouse assessed as mortality at 500 to 2000 mg/kg, po administered as single dose measured for 14 days; type: organism-based; settings: in vivo, 336 h
[2] = Oral bioavailability in female Sprague-Dawley rat at 10 mg/kg measured up to 24 hrs by LC/MS-MS analysis; type: ADME, organism-based; settings: in vivo
[3] = Volume of distribution in steady state in male Sprague-Dawley rat at 2 mg/kg, iv measured up to 24 hrs by LC/MS-MS analysis; type: ADME, organism-based; settings: in vivo, read-out: Vdss
[4] = Toxicity in athymic nude mouse xenografted with human A549 cells assessed as effect on liver morphological changes at 25 to 50 mg/kg, ip administered once daily for 21 days by H and E staining based assay; type: organism-based; settings: in vivo, 504 h
A549 [5] = assay: In vivo inhibition of PI3K/Akt/mTOR signalling pathway in human A549 cells xenografted in athymic nude mouse assessed as decrease in phosphorylation of mTOR at 25 to 50 mg/kg, ip administered once daily for 21 days by Western blot analysis; type: functional, organism-based
A549 [6] = assay: Inhibition of eIF4E/eIF4G interaction in human A549 cells at 2.5 uM incubated for 24 hrs by proximity ligation assay; type: cell-based
[7] = Half life in male Sprague-Dawley rat at 2 mg/kg, iv measured up to 24 hrs by LC/MS-MS analysis; type: ADME, organism-based; settings: in vivo
[8] = Inhibition of PI3K/Akt/mTOR signalling pathway in human A549 cells assessed as reduction in mTOR phosphorylation at 1 to 5 uM incubated for 48 hrs by Western blot analysis; type: cell-based
A549 [9] = assay: In vivo inhibition of PI3K/Akt/mTOR in human A549 cells xenografted in athymic nude mouse assessed as decrease in phosphorylation of 4EBP1 at 25 to 50 mg/kg, ip administered once daily for 21 days by Western blot analysis; type: functional, organism-based
[10] = MRT in female Sprague-Dawley rat at 10 mg/kg, po measured up to 24 hrs by LC/MS-MS analysis; type: ADME, organism-based; settings: in vivo
[11] = Half life in male Sprague-Dawley rat at 10 mg/kg, po measured up to 24 hrs by LC/MS-MS analysis; type: ADME, organism-based; settings: in vivo
[12] = Oral bioavailability in male Sprague-Dawley rat at 10 mg/kg measured up to 24 hrs by LC/MS-MS analysis; type: ADME, organism-based; settings: in vivo
[13] = Cmax in male Sprague-Dawley rat at 2 mg/kg, iv measured up to 24 hrs by LC/MS-MS analysis; type: ADME, organism-based; set-up: dose 2 mg/kg, route intravenous; settings: in vivo
A549 [14] = assay: In vivo inhibition of PI3K/Akt/mTOR signalling pathway in human A549 cells xenografted in athymic nude mouse assessed as decrease in phosphorylation of Akt at 25 to 50 mg/kg, ip administered once daily for 21 days by Western blot analysis; type: functional, organism-based
HUVEC = assay: Antiproliferative activity against human HUVEC cells assessed as inhibition of cell growth incubated for 48 hrs by MTT assay; type: cell-based
[15] = Subacute toxicity in SPF Kunming mouse assessed as mortality at 2000 mg/kg, po administered once a day for 14 days; type: organism-based; settings: in vivo, 336 h
[16] = Toxicity in athymic nude mouse xenografted with human A549 cells assessed as effect on heart morphological changes at 25 to 50 mg/kg, ip administered once daily for 21 days by H and E staining based assay; type: organism-based; settings: in vivo, 504 h
A549 [17] = assay: Antitumor activity against human A549 cells xenografted in athymic nude mouse assessed as decrease in tumor growth at 25 mg/kg, ip administered once daily for 21 days; type: functional; settings: 504 h
A549 [18] = assay: Induction of apoptosis in human A549 cells assessed as activation of PARP at 1 to 5 uM incubated for 48 hrs by Western blot analysis; type: functional, cell-based
A549 [19] = assay: Antiproliferative activity against human A549 cells assessed as inhibition of cell growth incubated for 48 hrs by MTT assay; type: functional, cell-based; settings: A549, 48 h
[20] = Acute toxicity in SPF Kunming mouse assessed as body weight at 500 mg/kg, po administered as single dose measured at day 7 (reference value: 30.2g); type: organism-based; settings: in vivo
[21] = target: Eukaryotic translation initiation factor 4E (Homo sapiens) (UniProt P06730); assay: Inhibition of eIF4E phosphorylation in human A549 cells assessed as decrease in c-myc expression at 1 to 5 uM incubated for 48 hrs by western blot analysis; type: cell-based
Chain of Eukaryotic translation initiation factor 4E (Homo sapiens) (P06730 whole entry): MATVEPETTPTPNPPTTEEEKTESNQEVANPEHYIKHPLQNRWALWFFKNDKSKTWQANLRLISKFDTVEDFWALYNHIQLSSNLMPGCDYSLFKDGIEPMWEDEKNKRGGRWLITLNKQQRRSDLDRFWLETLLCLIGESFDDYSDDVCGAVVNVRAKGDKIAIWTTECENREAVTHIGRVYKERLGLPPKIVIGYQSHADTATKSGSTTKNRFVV

[22] = Acute toxicity in SPF Kunming mouse assessed as body weight at 1000 mg/kg, po administered as single dose measured at day 7 (reference value: 30.2g); type: organism-based; settings: in vivo
A549 [23] = assay: Induction of apoptosis in human A549 cells assessed as decrease in Bcl2 level at 1 to 5 uM incubated for 48 hrs by Western blot analysis; type: functional, cell-based
[24] = Acute toxicity in SPF Kunming mouse assessed as body weight at 1000 mg/kg, po administered as single dose measured at day 14 (reference value: 34.7g); type: organism-based; settings: in vivo
[25] = Toxicity in athymic nude mouse xenografted with human A549 cells assessed as effect on spleen morphological changes at 25 to 50 mg/kg, ip administered once daily for 21 days by H and E staining based assay; type: organism-based; settings: in vivo, 504 h
[26] = Toxicity in athymic nude mouse xenografted with human A549 cells assessed as changes in body weight at 25 to 50 mg/kg, ip administered once daily for 21 days; type: organism-based; settings: in vivo, 504 h
[27] = Cmax in female Sprague-Dawley rat at 2 mg/kg, iv measured up to 24 hrs by LC/MS-MS analysis; type: ADME, organism-based; set-up: dose 2 mg/kg, route intravenous; settings: in vivo
A549 [28] = assay: Induction of autophagy in human A549 cells infected with Ad-mCherry-GFP-LC3B assessed as LC3 aggregate formation at 2.5 uM incubated for 48 hrs by fluorescence microscopy; type: functional, cell-based
[29] = Inhibition of PI3K/Akt/mTOR signalling pathway in human A549 cells assessed as reduction in Akt phosphorylation at 1 to 5 uM incubated for 48 hrs by Western blot analysis; type: cell-based
[30] = AUC (0 to 24 hrs) in female Sprague-Dawley rat at 2 mg/kg, iv measured up to 24 hrs by LC/MS-MS analysis; type: ADME, organism-based; set-up: time < 24 hr, dose 2 mg/kg, route intravenous; settings: in vivo
A549 [31] = assay: Induction of autophagy in human A549 cells assessed as change in […] expression at 1 to 5 uM incubated for 48 hrs by Western blot analysis; type: functional, cell-based
A549 [32] = assay: Induction of apoptosis in human A549 cells at 1 to 5 uM incubated for 48 hrs by annexin-V and propidium iodide staining based flow cytometric analysis; type: functional, cell-based
A549 [33] = assay: In vivo inhibition of PI3K/Akt/mTOR signalling pathway in human A549 cells xenografted in athymic nude mouse assessed as decrease in phosphorylation of PI3K at 25 to 50 mg/kg, ip administered once daily for 21 days by Western blot analysis; type: functional, organism-based
A549 [34] = assay: In vivo inhibition of eIF4E in human A549 cells xenografted in athymic nude mouse assessed as decrease in phosphorylation of eIF4E at 25 to 50 mg/kg, ip administered once daily for 21 days by Western blot analysis; type: functional, organism-based
[35] = AUC (0 to 24 hrs) in male Sprague-Dawley rat at 10 mg/kg, po measured up to 24 hrs by LC/MS-MS analysis; type: ADME, organism-based; set-up: time < 24 hr, dose 10 mg/kg, route oral; settings: in vivo

## Fc1ccc(/C=N/Nc2nc(-c3ccc(C(F)(F)F)cc3)cs2)cc1F
[1]
  Activity: Non-Toxic
[2]
  bioavailability: 31%
[3]
  Vd: 0.12 L/kg
[4]
  Activity: Non-Toxic
A549 [5]
  inhibition: Active
A549 [6]
  inhibition: Active
[7]
  half-life: 2.83 h
[8]
  inhibition: Active
A549 [9]
  inhibition: Active
[10]
  MRT: 1.62 h
[11]
  half-life: 1.27 h
[12]
  bioavailability: 17.2%
[13]
  Cmax: 149 µM
A549 [14]
  inhibition: Active
HUVEC
  IC50: 79.5 µM
[15]
  Activity: Non-Toxic
[16]
  Activity: Non-Toxic
A549 [17]
  inhibition in vivo at 25 mg/kg: 62%
A549 [18]
  Activity: Active
A549 [19]
  IC50: 2.61 µM
[20]
  Activity: 29.1 g
[21]
  inhibition: Active
[22]
  Activity: 30.5 g
A549 [23]
  Activity: Active
[24]
  Activity: 34.9 g
[25]
  Activity: Non-Toxic
[26]
  Activity: Non-Toxic
[27]
  Cmax: 126 µM
A549 [28]
  Activity: Active
[29]
  inhibition: Active
[30]
  AUC(0-t) at 24 h: 133 µM·h
A549 [31]
  Activity: Active
A549 [32]
  Activity: Active
A549 [33]
  inhibition: Active
A549 [34]
  inhibition: Active
[35]
  AUC(0-t) at 24 h: 5.34 µM·h
